Laboratory results: US20260263479A1, “KRAS G12D INHIBITORS AND USES THEREOF” (SUZHOU ZANRONG PHARMA LIMITED, priority 2023, published 2026)

Each compound was assayed on PANC-1 pERK (assay: Phospho-ERK 1/2 assay). Details: Homo sapiens, PANC-1, 3 h, PANC-1 cells, 3 hours incubation with compound.
Type: cell-based
Experimental: Allow PNAC-1 cell growth in a T75 flask in DMEM and 10% 1 fetal calf serum (FCS; Gibco®), using standard tissue culture procedures until ~80% confluency is achieved. Day 1, seed 6000 cells/well in 384 well plate and incubate at 37° C., 5% CO2. Add diluted compound by Echo 550, final DMSO is 0.5%, incubate cells at 37° C., 5% CO2 for 3 hours. Then, remove medium and fix cells with 3.7% formaldehyde in PBS (PFA) by Apricot. Wash with PBS once. Permeabilize cells with cold 100% methanol and repeat wash once with PBS once. Add Li-Cor blocking buffer to each well and incubate 1.5 hours at RT. Remove blocking buffer and add primary antibody mixture (rabbit anti pERK, mouse anti GAPDH). Incubate at 4° C. overnight. Day 2, wash with PBST (Tween-20 in PBS) with total 3 times and then add secondary antibody mixture (goat anti rabbit 800CW (1:800 dilution in the combined solution) and goat anti mouse 680RD (1:800 dilution in the combined solution)), incubate for 60 minutes at RT away from light. Repeat washing with PBST 3 times. After final wash, centrifuge plate up-side-down at 1000 rpm to remove wash solution completely from wells. Before plate scanning, clean the bottom plate surface and the Odyssey® Imager scanning bed (if applicable) with moist, lint-free tissue to avoid any obstructions during scanning. Scan plate with detection in both 700 and 800 nm channels.

Point of comparison: C#Cc1c(F)ccc2cccc(-c3nc4c5c(cc(OC[C@@]67CCCN6CC6(CC6(F)F)C7)nc5c3F)N3C[C@H]5CC[C@H](N5)[C@H]3[C@H](C)O4)c12 (some centres unmarked) [Example 604], IC50 184 nM. Against it:
- C#Cc1c(F)ccc2cccc(-c3nc4c5c(cc(OCC6(CN7CCOC[C@H]7C)CC6)nc5c3F)N3C[C@H]5CC[C@H](N5)[C@H]3[C@H](C)O4)c12 [Example 611] — 13-fold lower, 14 nM
- C=C1CN2CCC[C@@]2(COc2cc3c4c(nc(-c5cc(O)cc6ccc(F)c(CC)c56)c(F)c4n2)OC[C@@H]2[C@@H]4CC[C@H](CN32)N4)C1 [Example 40, 5-ethyl-6-fluoro-4-((5aS,6S,9R)-1-fluoro-13-(((S)-2-methylenetetrahydro-1H-pyrrolizin-7a (5H)-yl)methoxy)-5a,6,7,8,9,10-hexahydro-5H-6,9-epiminoazepino[2′,1′: 3,4][1,4]oxazepino[5,6,7-de][1,6]naphthyridin-2-yl)naphthalen-2-ol] — 12-fold lower, 16 nM
- C#Cc1c(F)ccc2cccc(-c3nc4c5c(cc(OC[C@]67CC(=C)CN6C[C@@H](F)C7)nc5c3F)N3C[C@H]5CC[C@H](N5)[C@H]3[C@H](C)O4)c12 [Example 607] — within 1.5-fold, 198 nM
- Cc1cc(N)nc(-c2c(F)c3c4c(cc(OCC5(CN6CCOC[C@H]6C)CC5)nc4c2F)N2C[C@H]4CC[C@H](N4)[C@H]2[C@H](C)O3)c1C(F)(F)F [Example 613a] — 1.7-fold lower, 111 nM
- C#Cc1c(F)ccc2cc(O)cc(-c3nc4c5c(cc(OC[C@@]67CCCN6C[C@H](F)C7)nc5c3F)N3C[C@@]5(C)CC[C@H](N5)[C@H]3[C@H](C)O4)c12 [Example 614] — 23-fold lower, 8.1 nM
- C#Cc1c(F)ccc2cccc(-c3nc4c5c(cc(OC[C@@]67CCCN6CC(=C)C7)nc5c3F)N3C[C@H]5CC[C@H](N5)[C@H]3CO4)c12 [Example 78, (5aS,6S,9R)-2-(8-ethynyl-7-fluoronaphthalen-1-yl)-1-fluoro-13-(((S)-2-methylenetetrahydro-1H-pyrrolizin-7a (5H)-yl)methoxy)-5a,6,7,8,9,10-hexahydro-5H-6,9-epiminoazepino[2′,1′: 3,4][1,4]oxazepino[5,6,7-de][1,6]naphthyridine] — 2.5-fold higher, 464 nM
- C#Cc1c(F)ccc2cc(O)cc(-c3nc4c5c(cc(OCC67CCCN6CC(=C)C7)nc5c3F)N3C[C@H]5CC[C@H](N5)[C@H]3[C@H](C)O4)c12 (some centres unmarked) [Example 566] — 63-fold lower, 2.9 nM
- C#Cc1c(F)ccc2cccc(-c3nc4c5c(cc(OC[C@@]67CCCN6C[C@H](F)C7)nc5c3F)N3C[C@H]5CC[C@H](N5)[C@H]3[C@H](C)O4)c12 [Example 571] — 11-fold lower, 17 nM
- C#Cc1c(F)ccc2cc(O)cc(-c3nc4c5c(cc(OCC67CC(=C)CN6CC(=C)C7)nc5c3F)N3C[C@H]5CC[C@H](N5)[C@H]3CO4)c12 [Example 4, 4-((5aS,6S,9R)-13-((2,6-dimethylenetetrahydro-1H-pyrrolizin-7a (5H)-yl)methoxy)-1-fluoro-5a,6,7,8,9,10-hexahydro-5H-6,9-epiminoazepino[2′,1′: 3,4][1,4]oxazepino[5,6,7-de][1,6]naphthyridin-2-yl)-5-ethynyl-6-fluoronaphthalen-2-ol] — 5.4-fold lower, 34 nM
- C#Cc1c(F)ccc2cccc(-c3nc4c5c(cc(OC[C@@]67CC(=C)CN6C[C@H](F)C7)nc5c3F)N3C[C@H]5CC[C@H](N5)[C@H]3[C@H](C)O4)c12 [Example 608] — within 1.5-fold, 251 nM
- C#Cc1c(F)ccc2cc(O)cc(-c3nc4c5c(cc(OC[C@@]67CCCN6C[C@H](F)C7)nc5c3F)N3C[C@H]5CC[C@H](N5)[C@H]3[C@H](C)O4)c12 [Example 565, 5-ethynyl-6-fluoro-4-((5S,5aS,6S,9R)-1-fluoro-13-(((2R,7aS)-2-fluorotetrahydro-1H-pyrrolizin-7a (5H)-yl)methoxy)-5-methyl-5a,6,7,8,9,10-hexahydro-5H-6,9-epiminoazepino[2′,1′: 3,4][1,4]oxazepino[5,6,7-de][1,6]naphthyridin-2-yl)naphthalen-2-ol] — 150-fold lower, 1.2 nM
- CCc1c(F)ccc2cc(O)cc(-c3nc4c5c(cc(OC[C@@]67CCCN6C[C@H](F)C7)nc5c3F)N3C[C@H]5CC[C@H](N5)[C@H]3[C@H](C)O4)c12 [Example 568, 5-ethyl-6-fluoro-4-((5S,5aS,6S,9R)-1-fluoro-13-(((2R,7aS)-2-fluorotetrahydro-1H-pyrrolizin-7a (5H)-yl)methoxy)-5-methyl-5a,6,7,8,9,10-hexahydro-5H-6,9-epiminoazepino[2′,1′: 3,4][1,4]oxazepino[5,6,7-de][1,6]naphthyridin-2-yl)naphthalen-2-ol] — 33-fold lower, 5.6 nM
- C#Cc1c(F)ccc2cccc(-c3nc4c5c(cc(OC[C@@]67CC(=C)CN6C[C@H](OC)C7)nc5c3F)N3C[C@H]5CC[C@H](N5)[C@H]3[C@H](C)O4)c12 [Example 609] — 19-fold lower, 9.6 nM
- C#Cc1c(F)ccc2cc(O)cc(-c3nc4c5c(cc(OC[C@@]67CCCN6C/C(=C\F)C7)nc5c3F)N3C[C@H]5CC[C@H](N5)[C@H]3[C@H](C)O4)c12 [Example 602] — 120-fold lower, 1.5 nM
- C#Cc1c(F)ccc2cccc(-c3nc4c5c(cc(OC[C@@]67CCCN6C/C(=C/F)C7)nc5c3F)N3C[C@H]5CC[C@H](N5)[C@H]3[C@H](C)O4)c12 [Example 603] — 3.8-fold lower, 48 nM
- C#Cc1c(F)ccc2cc(O)cc(-c3nc4c5c(cc(OC[C@@]67CCCN6CC(=C)C7)nc5c3F)N3C[C@H]5CC[C@H](N5)[C@H]3CO4)c12 [Example 2, 5-ethynyl-6-fluoro-4-((5aS,6S,9R)-1-fluoro-13-(((S)-2-methylenetetrahydro-1H-pyrrolizin-7a (5H)-yl)methoxy)-5a,6,7,8,9,10-hexahydro-5H-6,9-epiminoazepino[2′,1′: 3,4][1,4]oxazepino[5,6,7-de][1,6]naphthyridin-2-yl)naphthalen-2-ol] — 13-fold lower, 14 nM
- C=C1CN2CCCC2(COc2cc3c4c(nc(-c5cc(O)cc6ccc(F)c(CC)c56)c(F)c4n2)O[C@@H](C)[C@@H]2[C@@H]4CC[C@H](CN32)N4)C1 (some centres unmarked) [Example 569] — 110-fold lower, 1.7 nM
- C=C1CN2CCC[C@@]2(COc2cc3c4c(nc(-c5cccc6ccc(F)c(CC)c56)c(F)c4n2)O[C@@H](C)[C@@H]2[C@@H]4CC[C@H](CN32)N4)C1 [Example 606] — within 1.5-fold, 246 nM
- C#Cc1c(F)ccc2cccc(-c3nc4c5c(cc(OCC67CCCN6CC(=C)C7)nc5c3F)N3C[C@H]5CC[C@H](N5)[C@H]3[C@H](C)O4)c12 (some centres unmarked) [Example 572] — 13-fold lower, 14 nM
- C=C1CN2CC(=C)CC2(COc2cc3c4c(nc(-c5cc(O)cc6ccc(F)c(CC)c56)c(F)c4n2)O[C@@H](C)[C@@H]2[C@@H]4CC[C@H](CN32)N4)C1 [Example 570] — 2.4-fold lower, 76 nM
- C#Cc1c(F)ccc2cc(O)cc(-c3nc4c5c(cc(OCC67CC(=C)CN6CC(=C)C7)nc5c3F)N3C[C@H]5CC[C@H](N5)[C@H]3[C@H](C)O4)c12 [Example 567] — 190-fold lower, 0.95 nM
- CCc1c(F)ccc2cc(O)cc(-c3nc4c5c(cc(OC[C@@]67CCCN6C[C@H](F)C7)nc5c3F)N3C[C@@]5(C)CC[C@H](N5)[C@H]3[C@H](C)O4)c12 [Example 615] — 7.4-fold lower, 25 nM
- Cc1cc(N)nc(-c2nc3c4c(cc(OC[C@@]56CCCN5C[C@H](F)C6)nc4c2F)N2C[C@H]4CC[C@H](N4)[C@H]2[C@H](C)O3)c1C(F)(F)F [Example 574] — 5.6-fold lower, 33 nM
- CCc1c(F)ccc2cc(O)cc(-c3nc4c5c(cc(OC[C@@]67CCCN6C/C(=C\F)C7)nc5c3F)N3C[C@H]5CC[C@H](N5)[C@H]3[C@H](C)O4)c12 [Example 601] — 22-fold lower, 8.2 nM

Same assay, conditions: PANC-1 cells, 3 hours incubation with compound

Point of comparison: C#Cc1c(F)ccc2cc(O)cc(-c3c(F)c4c5c(cc(OC[C@@]67CCCN6C[C@H](F)C7)nc5c3F)N3C[C@H]5CC[C@H](N5)[C@H]3[C@H](C)O4)c12 (single isomer, unassigned) [Example 577b], IC50 23.1 nM. Against it:
- C#Cc1c(F)ccc2cc(O)cc(-c3c(F)c4c5c(cc(OC[C@@]67CCCN6C[C@H](F)C7)nc5c3F)N3C[C@H]5CC[C@H](N5)[C@H]3[C@H](C)O4)c12 (single isomer, unassigned) [Example 577a] — 34-fold lower, 0.68 nM
- C=C1CN2CC(=C)CC2(COc2cc3c4c(nc(-c5cc(O)cc6ccc(F)c(CC)c56)c(F)c4n2)OC[C@@H]2[C@@H]4CC[C@H](CN32)N4)C1 [compound 42] — 7.3-fold higher, 169 nM
- C#Cc1cccc2cccc(-c3nc4c5c(cc(OC[C@@]67CCCN6CC(=C)C7)nc5c3F)N3C[C@H]5CC[C@H](N5)[C@H]3[C@H](C)O4)c12 [Example 605] — within 1.5-fold, 25 nM

Each compound was assayed against T1, P-glycoprotein (Pgp) (Homo sapiens, UniProt P08183) (assay: MDCK-MDR1 Pgp assessment). Details: dog, MDCK-MDR1 cells, 37° C., read-out: Pgp Efflux Ratio (Pexact).
T1 construct: expressed in transfected cells; host or cells: MDCK-MDR1 cells
T1 sequence (P08183 whole entry): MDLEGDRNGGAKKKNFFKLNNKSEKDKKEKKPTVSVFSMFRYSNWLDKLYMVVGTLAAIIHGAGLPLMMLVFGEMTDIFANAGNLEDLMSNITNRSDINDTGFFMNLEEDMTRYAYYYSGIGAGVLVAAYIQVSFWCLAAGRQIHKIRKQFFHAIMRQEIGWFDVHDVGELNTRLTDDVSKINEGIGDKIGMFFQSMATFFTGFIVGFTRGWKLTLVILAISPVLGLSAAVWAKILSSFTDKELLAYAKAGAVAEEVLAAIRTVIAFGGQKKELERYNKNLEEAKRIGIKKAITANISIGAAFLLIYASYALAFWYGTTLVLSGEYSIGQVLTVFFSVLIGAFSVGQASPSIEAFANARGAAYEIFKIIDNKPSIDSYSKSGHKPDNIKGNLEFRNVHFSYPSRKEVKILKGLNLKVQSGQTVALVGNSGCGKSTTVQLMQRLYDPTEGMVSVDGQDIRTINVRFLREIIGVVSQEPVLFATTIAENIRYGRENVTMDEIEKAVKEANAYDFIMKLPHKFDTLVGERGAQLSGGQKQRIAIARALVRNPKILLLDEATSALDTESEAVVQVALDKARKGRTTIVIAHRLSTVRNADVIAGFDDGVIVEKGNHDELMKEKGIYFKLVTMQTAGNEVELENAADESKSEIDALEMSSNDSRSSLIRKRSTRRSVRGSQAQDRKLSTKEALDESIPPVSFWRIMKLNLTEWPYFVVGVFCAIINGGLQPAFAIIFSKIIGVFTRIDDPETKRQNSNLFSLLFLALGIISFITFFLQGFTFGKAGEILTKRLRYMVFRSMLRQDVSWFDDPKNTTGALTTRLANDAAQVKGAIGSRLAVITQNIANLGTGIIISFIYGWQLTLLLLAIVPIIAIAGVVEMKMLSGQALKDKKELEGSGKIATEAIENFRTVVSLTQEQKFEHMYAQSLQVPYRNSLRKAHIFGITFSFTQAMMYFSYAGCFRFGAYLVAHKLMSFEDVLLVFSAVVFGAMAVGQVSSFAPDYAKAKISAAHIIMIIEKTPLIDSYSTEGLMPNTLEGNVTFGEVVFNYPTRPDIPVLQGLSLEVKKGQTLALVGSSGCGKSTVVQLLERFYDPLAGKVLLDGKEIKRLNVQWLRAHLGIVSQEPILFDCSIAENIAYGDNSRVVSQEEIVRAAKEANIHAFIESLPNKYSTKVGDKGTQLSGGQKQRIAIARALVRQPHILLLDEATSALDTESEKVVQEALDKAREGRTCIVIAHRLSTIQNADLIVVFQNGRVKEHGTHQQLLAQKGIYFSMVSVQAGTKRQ
Type: in vitro ADME
Experimental: Efflux transport mediated by P-glycoprotein (Pgp) was assessed by MDCK-MDR1 cells. The final concentrations of test compounds and control compound were at 1 μM. The multi-well insert plate was incubated at 37° C. for 2 hours. In order to reliably measure passive permeability coefficients, Pexact was reported, which automatically corrects for loss of compound.

Point of comparison: C#Cc1c(F)ccc2cc(O)cc(-c3nc4c5c(cc(OCC67CCCN6CC(=C)C7)nc5c3F)N3C[C@H]5CC[C@H](N5)[C@H]3[C@H](C)O4)c12 (some centres unmarked) [Example 566], efflux ratio at 2 h, 1 μM 13. Against it:
- C#Cc1c(F)ccc2cc(O)cc(-c3nc4c5c(cc(OC[C@@]67CCCN6C[C@H](F)C7)nc5c3F)N3C[C@H]5CC[C@H](N5)[C@H]3[C@H](C)O4)c12 [Example 565, 5-ethynyl-6-fluoro-4-((5S,5aS,6S,9R)-1-fluoro-13-(((2R,7aS)-2-fluorotetrahydro-1H-pyrrolizin-7a (5H)-yl)methoxy)-5-methyl-5a,6,7,8,9,10-hexahydro-5H-6,9-epiminoazepino[2′,1′: 3,4][1,4]oxazepino[5,6,7-de][1,6]naphthyridin-2-yl)naphthalen-2-ol] — lower, 5.25
- C#Cc1c(F)ccc2cc(O)cc(-c3nc4c5c(cc(OC[C@@]67CCCN6CC(=C)C7)nc5c3F)N3C[C@H]5CC[C@H](N5)[C@H]3CO4)c12 [Example 2, 5-ethynyl-6-fluoro-4-((5aS,6S,9R)-1-fluoro-13-(((S)-2-methylenetetrahydro-1H-pyrrolizin-7a (5H)-yl)methoxy)-5a,6,7,8,9,10-hexahydro-5H-6,9-epiminoazepino[2′,1′: 3,4][1,4]oxazepino[5,6,7-de][1,6]naphthyridin-2-yl)naphthalen-2-ol] — lower, 5.37
